Data published in US9144595B2, “APLs for treating arthritis” (University of Tennessee Research Foundation, priority 2009, dated 2015).

Assays:
[1] = tested on: RA PBMC; test: Stability of HC Peptide 1 stored at 4° C., tested on IFNγ production by RA PBMC; assay type: cell-based, human
Procedure: Approximately 70% of the patients screened should have one or more of the RA shared epitope alleles. If the trend we saw in the small preliminary data sample holds true for the larger sample size, the majority of APL A12 responders will have one or more of the shared epitopes. […] Each month we will prepare a fresh stock solution of APL A12 dissolved in PBS, filter sterilized and stored at 4° C. APL A12 stored at 4° C. in solution retains it biologic activity for >30 days. A fresh solution of α1(II) will also be prepared each month and stored at 4° C. and handled using sterile technique.
HC Peptide 1 was dissolved in phosphate buffered saline and stored at 4° C. for up to five months and then tested and compared in vitro with freshly prepared HC Peptide 1 to inhibit IFNγ production by RA patients PBMC stimulated by α1(II).

[2] = tested on: DR1 Transgenic mice; test: Effect of A12 on CIA in DR1 Transgenic mice (CII plus A12; intravenous A12 after CII-immunization); assay type: in vivo, mouse; conditions: for Incidence: arthritis incidence
Procedure: Assuming that CII263-270 was key to developing immunity to the intact CII molecule, a number of analog peptides where amino acids within this small segment were substituted with those found in the corresponding sites of nonarthritogenic type I collagen were prepared and tested. […] The APL A12 developed for this study has the following amino acid sequence: LGPKGQTGEBG[IAGNKGDQGPK]GEBGPA (SEQ ID NO: 3) where B=hydroxproline. The core determinant of human CII263-270 is bracketed. The underlined residues are those substituted to produce APL A12. The residues amino terminal and carboxy terminal to the core determinant is from the normal human CII sequence.

[3] = tested on: Peyer's Patch cells of DR1 TCRtg+/+ mice; test: Oral APL A12: IL-17 and IL-10 in cultures of Peyer's Patch cells of DR1 TCRtg+/+ mice; assay type: in vivo, mouse
[4] = tested on: FcεRIγ; test: FcεRIγ expression in DR1 TCR tg cells; assay type: cell-based, mouse; conditions: DR1 TCR tg cells cultured with peptide 48 hours; FIG. 6
Procedure: In FIG. 6 it is shown that A12 treatment increases […] expression. In the graph with axis 610 for the percentage of the maximum, axis 615 for the number of occurrences on a log scale, line 620 is for A2, line 625 is for media alone, and line 630 is for A12. Splenocytes from DR1 TCR transgenic mice were cultured for 48 hours in the presence of A12 (dark grey line), A2 (black line) or media alone (light grey line). […] The cells cultured with A2 peptide are no different than unstimulated controls.
Finally, we examined the expression of FcεRIγ, a molecule known to associate with the TCR complex. In some circumstances, the TCR is rewired so that the FcRgamma chain assumes the function of the zeta chain. Therefore, the DR1 TCR tg cells were cultured with either A12, or A2, or media alone and stained with an antibody specific for the gamma chain of the FcεRIγ molecule.

[5] = tested on: splenocytes and lymph node cells from DR1 Transgenic mice; test: Cytokine secretion by splenocytes and lymph node cells of DR1 Transgenic mice immunized with CII or Analog A12; assay type: cell-based, mouse
Excerpt: One of the most important characteristics of the A12 analog peptide was its ability to induce a Th2-type cytokine secretion profile. In this set of experiments, DR1 transgenic mice were immunized with A12 peptide or CII emulsified with CFA. […] In contrast, cells from mice immunized with CII generated predominantly a Th1 response to the wild-type peptide. […] The ability to induce the secretion of Th2 cytokines may explain the profound suppressive effects A12 has on the development of CIA.
One of the most important characteristics of the A12 analog peptide is its ability to reduce a Th1 cytokine profile and induce a Th2-type cytokine secretion profile in humans and in DR1 transgenic mice. In work we have published, DR1 transgenic mice were immunized with A12 peptide or CII emulsified with CFA. […] In contrast, cells from mice immunized with CII generated multiple cytokines, but predominantly a Th1 response to the wild-type peptide. Importantly, although immunized with CII, they responded to A12 with only a Th2 response.

[6] = mice gavaged with 50 μg APL A12 9 times over 2 weeks, cells cultured with PBS
[7] = mice gavaged with 50 μg APL A12, cells cultured with APL A12 50 μg/ml
[8] = mice gavaged with 50 μg APL A12, cells cultured with CII263-270 50 μg/ml
[9] = mice gavaged with PBS, cells cultured with APL A12 50 μg/ml
[10] = Immunogen Analog A12, cultured with 100 μg/ml A12
[11] = Immunogen Analog A12, cultured with 100 μg/ml PPD
[12] = Immunogen Analog A12, cultured with 100 μg/ml Wild-type Peptide
[13] = Immunogen Analog A12, cultured with 100 μg/ml α1(II)
[14] = Immunogen CII, cultured with 100 μg/ml A12

With LGPKGQTGEBGIAGAKGDQGPKGEBGPA [APL A12] the “IFNγ Concentration in PBMC Supernatants” value ([1]; A12 0.1 μg/ml + PBS, A12 stored at 4° C. 6 Days) was 26 pg/mL, the “IFNγ Concentration in PBMC Supernatants” value ([1]; A12 0.1 μg/ml + PBS, A12 stored at 4° C. 78 Days) was 0 pg/mL and the “IFNγ Concentration in PBMC Supernatants” value ([1]; A12 0.1 μg/ml + PBS, A12 stored at 4° C. 143 Days) was 0 pg/mL. The “IFNγ Concentration in PBMC Supernatants” value ([1]; A12 0.1 μg/ml + α1(II) 50 μg/ml, A12 stored at 4° C. 6 Days) was 45 pg/mL, the “IFNγ Concentration in PBMC Supernatants” value ([1]; A12 0.1 μg/ml + α1(II) 50 μg/ml, A12 stored at 4° C. 78 Days) was 10 pg/mL and the “IFNγ Concentration in PBMC Supernatants” value ([1]; A12 0.1 μg/ml + α1(II) 50 μg/ml, A12 stored at 4° C. 143 Days) was 22 pg/mL. For the same sequence, the “IFNγ Concentration in PBMC Supernatants” value ([1]; A12 1 μg/ml + PBS, A12 stored at 4° C. 6 Days) was 10 pg/mL, the “IFNγ Concentration in PBMC Supernatants” value ([1]; A12 1 μg/ml + PBS, A12 stored at 4° C. 78 Days) was 0 pg/mL and the “IFNγ Concentration in PBMC Supernatants” value ([1]; A12 1 μg/ml + PBS, A12 stored at 4° C. 143 Days) was 0 pg/mL. For the same sequence, the “IFNγ Concentration in PBMC Supernatants” value ([1]; A12 1 μg/ml + α1(II) 50 μg/ml, A12 stored at 4° C. 6 Days) was 23 pg/mL, the “IFNγ Concentration in PBMC Supernatants” value ([1]; A12 1 μg/ml + α1(II) 50 μg/ml, A12 stored at 4° C. 78 Days) was 37 pg/mL and the “IFNγ Concentration in PBMC Supernatants” value ([1]; A12 1 μg/ml + α1(II) 50 μg/ml, A12 stored at 4° C. 143 Days) was 6 pg/mL. For the same sequence, the “IFNγ Concentration in PBMC Supernatants” value ([1]; A12 10 μg/ml + PBS, A12 stored at 4° C. 6 Days) was 0 pg/mL, the “IFNγ Concentration in PBMC Supernatants” value ([1]; A12 10 μg/ml + PBS, A12 stored at 4° C. 78 Days) was 0 pg/mL and the “IFNγ Concentration in PBMC Supernatants” value ([1]; A12 10 μg/ml + PBS, A12 stored at 4° C. 143 Days) was 0 pg/mL. The “IFNγ Concentration in PBMC Supernatants” value ([1]; A12 10 μg/ml + α1(II) 50 μg/ml, A12 stored at 4° C. 6 Days) was 77 pg/mL, the “IFNγ Concentration in PBMC Supernatants” value ([1]; A12 10 μg/ml + α1(II) 50 μg/ml, A12 stored at 4° C. 78 Days) was 82 pg/mL and the “IFNγ Concentration in PBMC Supernatants” value ([1]; A12 10 μg/ml + α1(II) 50 μg/ml, A12 stored at 4° C. 143 Days) was 21 pg/mL. For the same sequence, the “stability: ability to inhibit IFNγ production by α1(II) stimulated RA PBMC after storage” value ([1]; dissolved in phosphate buffered saline, stored at 4° C. for up to 5 months) was “retained its ability to inhibit IFNγ production”, the “time for which biologic activity is retained” value ([1]; stored at 4° C. in solution (PBS)) was over 30 days and the “Antibodies to CII” value ([2]; 0.01 mg (so in the source) i.v.) was 33 ± 11. The “Antibodies to CII” value ([2]; 0.5 mg total i.v.) was 24 ± 7 (p ≦ 0.025), the “Antibodies to CII” value ([2]; 1 mg total i.v.) was 22 ± 9 (p ≦ 0.025) and the “antibody production to CII” value ([2]; DR1-Transgenic mice) was “significantly decreased”. For the same sequence, the Incidence ([2]; 0.01 mg (so in the source) i.v. on days 10, 12, 14 after CII-immunization) was 5/10, the Incidence ([2]; 0.5 mg total i.v. on days 10, 12, 14 after CII-immunization) was 3/10 and the Incidence ([2]; 1 mg total i.v. on days 10, 12, 14 after CII-immunization) was 1/10 (p = 0.01). The “immunity to CII and arthritis” value ([2]; high-responder DR1 mice) was “profoundly suppress”, the “incidence of arthritis and number of arthritic limbs” value ([2]; mice immunized with CII plus A12) was “dose-related decrease” and the “II-10 Levels in Peyer's Patch Cultures” value [3, 6] was 116 pg/mL. The “IL-17 Levels in Peyer's Patch Cultures” value [3, 6] was 2.4 pg/mL, the “II-10 Levels in Peyer's Patch Cultures” value [3, 7] was 105 pg/mL and the “IL-17 Levels in Peyer's Patch Cultures” value [3, 7] was 1.8 pg/mL. The “II-10 Levels in Peyer's Patch Cultures” value [3, 8] was 94 pg/mL, the “IL-17 Levels in Peyer's Patch Cultures” value [3, 8] was 2.4 pg/mL and the “II-10 Levels in Peyer's Patch Cultures” value [3, 9] was 27 pg/mL. The “IL-17 Levels in Peyer's Patch Cultures” value [3, 9] was 16 pg/mL, the “FcR gamma chain (FcεRIγ) expression” value [4] was “significant increase” and the IFN-γ [5, 10] was 0 pg/mL. For the same sequence, the IL-10 [5, 10] was 808 pg/mL, the Il-4 [5, 10] was 31 pg/mL and the IFN-γ [5, 11] was 2,225 pg/ml. It also gave an IL-10 [5, 11] of 248 pg/mL, an Il-4 [5, 11] of 0 pg/mL and an IFN-γ [5, 12] of 175 pg/mL. For the same sequence, the IL-10 [5, 12] was 792 pg/mL, the Il-4 [5, 12] was 23 pg/mL and the IFN-γ [5, 13] was 0 pg/mL. It also gave an IL-10 [5, 13] of 680 pg/mL, an Il-4 [5, 13] of 45 pg/mL and an IFN-γ [5, 14] of 0 pg/mL. For the same sequence, the IL-10 [5, 14] was 610 pg/mL and the Il-4 [5, 14] was 40 pg/mL.
